Assays:
[1] = molecular target: T1, Non-receptor tyrosine-protein kinase TYK2 (Homo sapiens, UniProt P29597)
[2] = AUC in Sprague-Dawley rat at 2 mg/kg, po by LC/MS/MS analysis; format: ADME, organism-based; set-up: dose 2 mg/kg, route oral; settings: plasma
[3] = Plasma protein binding in cynomolgus monkey; format: ADME, cell-free, Macaca fascicularis; settings: read-out: PPB (converted)
[4] = Thermodynamic solubility in aqueous buffer at pH 2; format: physicochemical; settings: read-out: Therm_solubility
[5] = Clearance in Sprague-Dawley rat at 0.4 mg/kg, iv by LC/MS/MS analysis; format: ADME, organism-based; set-up: dose 0.4 mg/kg, route intravenous; settings: in vivo
Cytochrome P450 3A4 [6] = molecular target: T2, Cytochrome P450 3A4 (Homo sapiens, UniProt P08684); experiment: Reversible inhibition of CYP3A4 in human liver microsomes using testosterone as substrate by LC/MS/MS analysis; format: ADME, Microsome
Cytochrome P450 2C19 = Cytochrome P450 2C19 (Homo sapiens, UniProt P33261)
[7] = AUC in cynomolgus monkey at 2 mg/kg, po by LC/MS/MS analysis; format: ADME, organism-based, Macaca fascicularis; set-up: dose 2 mg/kg, route oral; settings: plasma
[8] = molecular target: T3, Tyrosine-protein kinase JAK1 (Homo sapiens, UniProt P23458)
[9] = Cmax in cynomolgus monkey at 2 mg/kg, po by LC/MS/MS analysis; format: ADME, organism-based, Macaca fascicularis; set-up: dose 2 mg/kg, route oral; settings: in vivo
[10] = Plasma protein binding in dog; format: ADME, cell-free, Canis lupus familiaris; settings: read-out: PPB (converted)
[11] = Metabolic stability in monkey hepatocytes assessed as hepatic clearance; format: ADME, cell-based, Macaca mulatta, Liver, Hepatocyte; settings: rhesus monkey
[12] = Clearance in Beagle dog at 0.4 mg/kg, iv by LC/MS/MS analysis; format: ADME, organism-based, Canis lupus familiaris; set-up: dose 0.4 mg/kg, route intravenous; settings: in vivo
Cytochrome P450 2C9 = Cytochrome P450 2C9 (Homo sapiens, UniProt P11712)
[13] = Plasma protein binding in rat; format: ADME, cell-free; settings: read-out: PPB (converted)
[14] = Hepatic clearance in human hepatocytes after 1 to 4 hrs by LC/MS/MS analysis; format: ADME, cell-based, Liver, Hepatocyte
[15] = Metabolic stability in dog hepatocytes assessed as hepatic clearance; format: ADME, cell-based, Canis lupus familiaris, Liver, Hepatocyte
[16] = Thermodynamic solubility in aqueous buffer at pH 7.4; format: physicochemical; settings: read-out: Therm_solubility
[17] = Cmax in Sprague-Dawley rat at 2 mg/kg, po by LC/MS/MS analysis; format: ADME, organism-based; set-up: dose 2 mg/kg, route oral; settings: in vivo
[18] = Cmax in Beagle dog at 2 mg/kg, po by LC/MS/MS analysis; format: ADME, organism-based, Canis lupus familiaris; set-up: dose 2 mg/kg, route oral; settings: in vivo
Cytochrome P450 3A4 [19] = molecular target: T2, Cytochrome P450 3A4; experiment: Reversible inhibition of CYP3A4 in human liver microsomes using midazolam as substrate by LC/MS/MS analysis; format: ADME, Microsome
[20] = molecular target: T3, Tyrosine-protein kinase JAK1; remark: listed apart in the source
[21] = molecular target: T1, Non-receptor tyrosine-protein kinase TYK2; remark: listed apart in the source
[22] = molecular target: T3, Tyrosine-protein kinase JAK1; remark: listed apart in the source
[23] = AUC in Beagle dog at 2 mg/kg, po by LC/MS/MS analysis; format: ADME, organism-based, Canis lupus familiaris; set-up: dose 2 mg/kg, route oral; settings: plasma
[24] = Oral bioavailability in Beagle dog at 2 mg/kg by LC/MS/MS analysis; format: ADME, organism-based, Canis lupus familiaris; settings: Beagle, in vivo
Cytochrome P450 2D6 = Cytochrome P450 2D6 (Homo sapiens, UniProt P10635)
[25] = Apparent permeability across basolateral to apical side in dog MDCK cells; format: ADME, cell-based, Canis lupus familiaris
[26] = Half life in Beagle dog at 0.4 mg/kg, iv by LC/MS/MS analysis; format: ADME, organism-based, Canis lupus familiaris; set-up: dose 0.4 mg/kg, route intravenous; settings: in vivo
[27] = Oral bioavailability in cynomolgus monkey at 2 mg/kg by LC/MS/MS analysis; format: ADME, organism-based, Macaca fascicularis; settings: in vivo
[28] = molecular target: Voltage-gated inwardly rectifying potassium channel KCNH2 (Homo sapiens, UniProt Q12809)
Cytochrome P450 1A2 = molecular target: T4, Cytochrome P450 1A2 (Homo sapiens, UniProt P05177); experiment: Reversible inhibition of CYP1A2 in human liver microsomes using phenacetin as substrate by LC/MS/MS analysis; format: ADME, Microsome
T4 sequence (P05177 whole entry): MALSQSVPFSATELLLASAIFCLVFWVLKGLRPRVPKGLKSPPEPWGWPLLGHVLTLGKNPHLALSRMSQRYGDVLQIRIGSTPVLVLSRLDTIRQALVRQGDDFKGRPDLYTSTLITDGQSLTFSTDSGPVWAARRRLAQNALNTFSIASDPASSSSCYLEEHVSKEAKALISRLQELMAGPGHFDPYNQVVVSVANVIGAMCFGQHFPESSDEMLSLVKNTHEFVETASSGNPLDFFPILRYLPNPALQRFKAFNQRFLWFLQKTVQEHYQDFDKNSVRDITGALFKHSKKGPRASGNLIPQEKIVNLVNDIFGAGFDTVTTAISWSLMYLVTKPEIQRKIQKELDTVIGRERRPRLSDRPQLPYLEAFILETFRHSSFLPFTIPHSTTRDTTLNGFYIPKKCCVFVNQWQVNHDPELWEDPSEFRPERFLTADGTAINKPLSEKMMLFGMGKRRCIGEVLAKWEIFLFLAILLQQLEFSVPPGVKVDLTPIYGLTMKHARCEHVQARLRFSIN

[29] = Metabolic stability in rat hepatocytes assessed as hepatic clearance; format: ADME, cell-based, Liver, Hepatocyte
[30] = Half life in cynomolgus monkey at 0.4 mg/kg, iv by LC/MS/MS analysis; format: ADME, organism-based, Macaca fascicularis; set-up: dose 0.4 mg/kg, route intravenous; settings: in vivo
[31] = Apparent permeability across apical to basolateral side in dog MDCK cells; format: ADME, cell-based, Canis lupus familiaris
[32] = Half life in Sprague-Dawley rat at 0.4 mg/kg, iv by LC/MS/MS analysis; format: ADME, organism-based; set-up: dose 0.4 mg/kg, route intravenous; settings: in vivo
Rattus norvegicus = experiment: Oral bioavailability in Sprague-Dawley rat at 2 mg/kg by LC/MS/MS analysis; format: ADME, organism-based; settings: in vivo
[33] = Hepatic clearance in human liver microsomes by LC/MS/MS analysis; format: ADME, Microsome
[34] = Clearance in cynomolgus monkey at 0.4 mg/kg, iv by LC/MS/MS analysis; format: ADME, organism-based, Macaca fascicularis; set-up: dose 0.4 mg/kg, route intravenous; settings: in vivo

T3 sequence (P23458 whole entry): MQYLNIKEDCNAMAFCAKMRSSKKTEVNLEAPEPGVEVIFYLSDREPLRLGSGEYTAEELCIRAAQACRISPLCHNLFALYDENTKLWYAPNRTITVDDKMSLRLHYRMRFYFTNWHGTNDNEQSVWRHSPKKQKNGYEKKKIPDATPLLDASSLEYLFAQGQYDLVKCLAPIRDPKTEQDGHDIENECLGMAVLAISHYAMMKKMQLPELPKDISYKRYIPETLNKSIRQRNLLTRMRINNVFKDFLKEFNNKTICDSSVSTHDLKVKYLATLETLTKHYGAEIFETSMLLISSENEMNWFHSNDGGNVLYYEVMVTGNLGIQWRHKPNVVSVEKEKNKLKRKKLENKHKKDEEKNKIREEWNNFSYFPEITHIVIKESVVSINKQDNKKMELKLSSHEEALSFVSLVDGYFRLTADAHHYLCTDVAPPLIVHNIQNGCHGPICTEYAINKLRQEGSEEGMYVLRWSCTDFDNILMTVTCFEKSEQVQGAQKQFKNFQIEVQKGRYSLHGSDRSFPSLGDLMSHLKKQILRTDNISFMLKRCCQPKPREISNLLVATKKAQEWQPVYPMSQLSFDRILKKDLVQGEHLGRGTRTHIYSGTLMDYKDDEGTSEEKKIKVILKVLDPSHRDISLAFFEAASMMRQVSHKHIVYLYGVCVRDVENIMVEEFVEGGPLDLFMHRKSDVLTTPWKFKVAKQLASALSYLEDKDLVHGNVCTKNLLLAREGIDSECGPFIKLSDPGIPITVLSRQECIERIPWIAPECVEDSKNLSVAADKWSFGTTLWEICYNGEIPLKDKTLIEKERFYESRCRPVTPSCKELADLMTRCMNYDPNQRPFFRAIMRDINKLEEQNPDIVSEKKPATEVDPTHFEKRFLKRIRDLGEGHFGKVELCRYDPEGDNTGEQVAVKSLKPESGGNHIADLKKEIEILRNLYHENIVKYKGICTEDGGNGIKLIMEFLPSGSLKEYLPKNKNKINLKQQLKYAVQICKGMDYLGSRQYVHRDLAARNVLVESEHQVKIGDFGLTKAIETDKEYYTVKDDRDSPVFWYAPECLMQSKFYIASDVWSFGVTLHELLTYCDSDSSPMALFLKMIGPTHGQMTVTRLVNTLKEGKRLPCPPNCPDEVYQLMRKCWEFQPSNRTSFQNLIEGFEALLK
T2 sequence (P08684 whole entry): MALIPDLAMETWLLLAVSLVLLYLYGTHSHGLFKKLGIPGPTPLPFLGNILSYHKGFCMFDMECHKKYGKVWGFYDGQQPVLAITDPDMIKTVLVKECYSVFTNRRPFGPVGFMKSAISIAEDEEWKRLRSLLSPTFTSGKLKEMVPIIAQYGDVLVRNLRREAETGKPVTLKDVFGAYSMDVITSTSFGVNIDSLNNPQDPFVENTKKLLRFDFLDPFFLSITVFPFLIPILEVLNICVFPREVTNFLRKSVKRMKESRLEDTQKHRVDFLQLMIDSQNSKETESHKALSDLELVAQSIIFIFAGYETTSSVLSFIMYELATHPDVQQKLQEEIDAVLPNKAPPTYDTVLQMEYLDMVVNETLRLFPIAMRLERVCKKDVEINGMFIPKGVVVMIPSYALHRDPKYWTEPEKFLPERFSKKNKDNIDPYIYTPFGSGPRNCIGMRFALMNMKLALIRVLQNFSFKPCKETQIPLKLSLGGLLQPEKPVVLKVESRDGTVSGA
T1 sequence (P29597 whole entry): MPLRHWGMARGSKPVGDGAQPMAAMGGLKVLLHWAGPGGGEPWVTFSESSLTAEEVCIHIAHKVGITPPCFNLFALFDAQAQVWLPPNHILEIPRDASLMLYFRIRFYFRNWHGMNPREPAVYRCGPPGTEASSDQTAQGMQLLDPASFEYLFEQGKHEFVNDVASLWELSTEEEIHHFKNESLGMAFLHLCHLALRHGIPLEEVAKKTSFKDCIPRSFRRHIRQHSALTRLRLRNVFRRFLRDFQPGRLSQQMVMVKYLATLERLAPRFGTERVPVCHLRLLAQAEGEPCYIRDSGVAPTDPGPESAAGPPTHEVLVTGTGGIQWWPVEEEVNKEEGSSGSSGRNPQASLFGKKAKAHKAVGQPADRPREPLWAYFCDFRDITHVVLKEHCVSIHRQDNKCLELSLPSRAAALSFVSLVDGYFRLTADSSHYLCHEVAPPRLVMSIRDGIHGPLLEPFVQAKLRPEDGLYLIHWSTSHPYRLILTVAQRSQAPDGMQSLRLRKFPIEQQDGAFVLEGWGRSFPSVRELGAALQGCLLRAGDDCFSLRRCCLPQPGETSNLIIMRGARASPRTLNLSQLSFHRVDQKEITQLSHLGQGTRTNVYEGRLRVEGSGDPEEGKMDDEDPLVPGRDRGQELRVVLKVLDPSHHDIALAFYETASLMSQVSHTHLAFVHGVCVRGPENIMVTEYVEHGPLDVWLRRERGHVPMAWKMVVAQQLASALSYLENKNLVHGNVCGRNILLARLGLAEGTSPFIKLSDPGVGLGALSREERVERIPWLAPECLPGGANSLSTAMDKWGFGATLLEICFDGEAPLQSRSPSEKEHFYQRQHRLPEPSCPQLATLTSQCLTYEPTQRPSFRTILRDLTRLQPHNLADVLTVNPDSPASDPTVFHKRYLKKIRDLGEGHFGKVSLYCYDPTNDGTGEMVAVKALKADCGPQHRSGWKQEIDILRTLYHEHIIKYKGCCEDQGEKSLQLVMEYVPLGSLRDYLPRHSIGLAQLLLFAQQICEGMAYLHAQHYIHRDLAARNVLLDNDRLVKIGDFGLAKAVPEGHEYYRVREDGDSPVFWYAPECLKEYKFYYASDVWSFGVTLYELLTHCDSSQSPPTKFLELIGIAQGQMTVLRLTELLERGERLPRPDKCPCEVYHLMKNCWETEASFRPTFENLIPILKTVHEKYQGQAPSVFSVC
Chain of Voltage-gated inwardly rectifying potassium channel KCNH2 (Q12809 whole entry): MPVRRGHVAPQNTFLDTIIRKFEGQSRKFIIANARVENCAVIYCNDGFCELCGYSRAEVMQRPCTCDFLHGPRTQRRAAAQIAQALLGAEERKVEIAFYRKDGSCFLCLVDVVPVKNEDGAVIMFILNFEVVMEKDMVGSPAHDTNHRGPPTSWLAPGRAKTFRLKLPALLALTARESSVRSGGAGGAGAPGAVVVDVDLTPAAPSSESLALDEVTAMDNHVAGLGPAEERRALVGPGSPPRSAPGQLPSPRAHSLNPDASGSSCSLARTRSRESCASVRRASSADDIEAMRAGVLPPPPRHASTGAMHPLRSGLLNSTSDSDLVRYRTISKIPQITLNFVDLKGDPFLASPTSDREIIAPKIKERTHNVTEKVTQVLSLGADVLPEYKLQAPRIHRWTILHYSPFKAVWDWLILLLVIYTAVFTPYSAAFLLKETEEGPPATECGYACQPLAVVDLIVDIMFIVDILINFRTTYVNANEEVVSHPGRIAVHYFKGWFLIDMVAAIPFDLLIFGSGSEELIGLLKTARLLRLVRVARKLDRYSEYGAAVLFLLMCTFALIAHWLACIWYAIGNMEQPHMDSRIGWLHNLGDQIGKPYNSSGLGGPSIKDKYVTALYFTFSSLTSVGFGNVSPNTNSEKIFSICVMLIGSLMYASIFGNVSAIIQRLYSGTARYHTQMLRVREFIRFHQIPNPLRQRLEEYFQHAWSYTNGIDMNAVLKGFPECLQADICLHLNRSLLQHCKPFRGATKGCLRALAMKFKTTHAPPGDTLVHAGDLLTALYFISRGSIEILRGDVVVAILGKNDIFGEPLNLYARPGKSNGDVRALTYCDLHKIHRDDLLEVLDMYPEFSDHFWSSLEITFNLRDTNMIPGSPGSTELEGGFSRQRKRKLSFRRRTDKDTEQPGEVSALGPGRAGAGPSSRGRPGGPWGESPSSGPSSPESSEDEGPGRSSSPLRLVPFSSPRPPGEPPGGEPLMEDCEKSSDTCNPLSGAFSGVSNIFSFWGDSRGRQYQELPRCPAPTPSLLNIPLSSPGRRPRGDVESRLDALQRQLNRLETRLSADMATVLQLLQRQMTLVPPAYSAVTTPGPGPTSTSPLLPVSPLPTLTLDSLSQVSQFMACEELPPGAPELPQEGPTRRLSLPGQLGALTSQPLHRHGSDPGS
Chain of Cytochrome P450 2D6 (P10635 whole entry): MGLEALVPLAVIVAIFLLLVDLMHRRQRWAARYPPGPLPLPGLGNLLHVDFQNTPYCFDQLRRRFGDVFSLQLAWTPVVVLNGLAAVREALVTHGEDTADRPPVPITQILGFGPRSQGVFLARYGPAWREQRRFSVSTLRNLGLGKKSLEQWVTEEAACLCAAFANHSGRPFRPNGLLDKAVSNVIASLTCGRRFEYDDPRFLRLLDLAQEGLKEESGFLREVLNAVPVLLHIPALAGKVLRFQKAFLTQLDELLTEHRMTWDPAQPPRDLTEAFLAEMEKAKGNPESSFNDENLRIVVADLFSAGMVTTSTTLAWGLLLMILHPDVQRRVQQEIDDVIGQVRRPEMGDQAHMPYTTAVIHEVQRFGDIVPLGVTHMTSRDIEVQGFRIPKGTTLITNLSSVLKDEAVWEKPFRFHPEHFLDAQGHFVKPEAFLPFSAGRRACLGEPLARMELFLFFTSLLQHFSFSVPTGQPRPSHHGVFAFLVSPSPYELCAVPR
Chain of Cytochrome P450 2C9 (P11712 whole entry): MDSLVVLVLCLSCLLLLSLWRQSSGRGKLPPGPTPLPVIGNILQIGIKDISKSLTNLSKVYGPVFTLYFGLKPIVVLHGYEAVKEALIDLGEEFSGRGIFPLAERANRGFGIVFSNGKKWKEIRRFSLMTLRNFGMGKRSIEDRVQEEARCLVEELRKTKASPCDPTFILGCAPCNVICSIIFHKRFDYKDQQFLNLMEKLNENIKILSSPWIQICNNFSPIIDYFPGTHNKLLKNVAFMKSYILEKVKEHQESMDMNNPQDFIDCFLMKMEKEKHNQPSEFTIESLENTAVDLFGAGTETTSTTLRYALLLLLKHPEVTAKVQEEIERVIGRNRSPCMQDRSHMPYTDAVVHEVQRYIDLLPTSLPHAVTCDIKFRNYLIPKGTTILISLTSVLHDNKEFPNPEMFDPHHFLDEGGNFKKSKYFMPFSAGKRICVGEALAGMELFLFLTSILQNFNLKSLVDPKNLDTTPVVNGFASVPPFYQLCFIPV

- EC50 [1]: > 5800 nM
- AUC [2]: 10.7 µM·h
- fraction unbound [3]: 0.46
- solubility thermodynamic [4]: > 4 mM
- clearance [5]: 22 mL/min/kg
- IC50 (Cytochrome P450 3A4 [6]): > 10000 nM
- IC50 (Cytochrome P450 2C19): > 10000 nM
- AUC [7]: 4.3 µM·h
- EC50 [8]: 110 nM
- Cmax [9]: 1.8 µM
- fraction unbound [10]: 0.39
- CLhep predicted [11]: 21 mL/min/kg
- clearance [12]: 2.1 mL/min/kg
- IC50 (Cytochrome P450 2C9): > 10000 nM
- fraction unbound [13]: 0.61
- CLhep predicted [14]: 1.9 mL/min/kg
- CLhep predicted [15]: 4.9 mL/min/kg
- solubility thermodynamic [16]: > 4 mM
- Cmax [17]: 5.2 µM
- Cmax [18]: 9.8 µM
- IC50 (Cytochrome P450 3A4 [19]): > 10000 nM
- EC50 [20]: 180 nM
- Ki [21]: 31 nM
- Ki [22]: 2.8 nM
- AUC [23]: 65.7 µM·h
- bioavailability [24]: 111%
- IC50 (Cytochrome P450 2D6): > 10000 nM
- Papp B→A [25]: 8.6 ×10⁻⁶ cm/s
- half-life [26]: 5.7 h
- bioavailability [27]: 70%
- IC50 (Cytochrome P450 1A2): > 10000 nM
- CLhep predicted [29]: 2.3 mL/min/kg
- half-life [30]: 1.1 h
- Papp A→B [31]: 7.6 ×10⁻⁶ cm/s
- half-life [32]: 1.5 h
- F (Rattus norvegicus): 197%
- CLhep predicted [33]: 2 mL/min/kg
- clearance [34]: 19 mL/min/kg
Structure (SMILES): C[C@@H](O)c1nc2cnc3[nH]ccc3c2n1[C@H]1CCCOC1
- IC50 [28]: > 100000 nM

From ChEMBL document CHEMBL2385026, “Identification of C-2 hydroxyethyl imidazopyrrolopyridines as potent JAK1 inhibitors with favorable physicochemical properties and high selectivity over JAK2” (J Med Chem, 2013)
